Measurements taken from ChEMBL document CHEMBL1125764, “Muscarinic receptor binding profile of para-substituted caramiphen analogues” (J Med Chem, 1991).

Legend:
[1] = biological target: T1, Muscarinic acetylcholine receptor M2 (Rattus norvegicus, UniProt P10980); test: Displacement of [3H](-)-quinuclidinyl benzilate(QNB) from muscarinic (M2) receptor in rat heart homogenates; assay type: tissue-based
T1 sequence (P10980 whole entry): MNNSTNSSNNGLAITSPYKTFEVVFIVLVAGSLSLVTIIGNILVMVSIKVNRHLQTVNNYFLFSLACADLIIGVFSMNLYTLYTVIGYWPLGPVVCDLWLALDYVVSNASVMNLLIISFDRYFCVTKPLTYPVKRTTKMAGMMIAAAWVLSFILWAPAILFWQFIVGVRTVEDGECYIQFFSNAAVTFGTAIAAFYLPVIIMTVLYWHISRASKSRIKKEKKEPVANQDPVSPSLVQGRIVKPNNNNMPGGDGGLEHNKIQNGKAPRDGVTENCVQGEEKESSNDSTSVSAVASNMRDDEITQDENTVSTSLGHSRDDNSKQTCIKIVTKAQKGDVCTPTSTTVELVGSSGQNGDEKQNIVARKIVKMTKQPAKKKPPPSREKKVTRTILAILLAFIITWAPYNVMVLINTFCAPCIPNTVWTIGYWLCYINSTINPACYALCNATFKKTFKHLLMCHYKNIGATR

[2] = biological target: T2, Muscarinic acetylcholine receptor M1 (Rattus norvegicus, UniProt P08482); parameters: species or system Cortex
T2 sequence (P08482 whole entry): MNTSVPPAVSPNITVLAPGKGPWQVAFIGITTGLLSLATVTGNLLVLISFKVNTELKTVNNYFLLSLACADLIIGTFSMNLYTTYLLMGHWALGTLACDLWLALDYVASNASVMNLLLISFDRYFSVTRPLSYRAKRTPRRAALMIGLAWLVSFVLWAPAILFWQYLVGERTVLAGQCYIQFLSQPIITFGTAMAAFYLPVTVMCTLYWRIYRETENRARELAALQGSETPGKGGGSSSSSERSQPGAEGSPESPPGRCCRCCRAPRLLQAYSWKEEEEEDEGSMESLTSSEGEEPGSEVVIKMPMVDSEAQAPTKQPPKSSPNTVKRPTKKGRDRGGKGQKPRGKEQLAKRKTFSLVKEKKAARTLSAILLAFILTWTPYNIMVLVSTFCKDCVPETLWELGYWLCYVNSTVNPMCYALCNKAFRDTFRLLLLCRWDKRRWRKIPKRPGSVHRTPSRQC

| Structure (SMILES) | Ki [1] [nM] | Ki [2] [nM] |
| --- | --- | --- |
| CCN(CC)CCOC(=O)C1(c2ccc(N)cc2)CCCC1 | 116 | 20 |
| CCN(CC)CCOC(=O)C1(c2ccc(N3CCCC3)cc2)CCCC1 | 551 | 151 |
| CCN(CC)CCOC(=O)C1(c2ccc(-n3cnnn3)cc2)CCCC1 | 432 | 14.5 |
| CCN(CC)CCOC(=O)C1(c2ccc([N+](=O)[O-])cc2)CCCC1 | 390 | 5.52 |
| CCN(CC)CCOC(=O)C1(c2ccc(I)cc2)CCCC1 | 123 | 2.11 |
| CCN(CC)CCOC(=O)C1(c2ccc(C#N)cc2)CCCC1 | 213 | 8.12 |
| CCN(CC)CCOC(=O)C1(c2ccccc2)CCCC1 | 31.7 | 1.21 |
| CCN(CC)CCOC(=O)C1(C2CCCCC2)CCCCC1 [DICYCLOMINE] | 47.3 |  |
